The values that follow are results of earlier work, collected in patent US6379705B1, “Stable multi-unitary pharmaceutical preparations containing substituted benzimidazoles” (Laboratorio Mendifar-Produtos Farmaceuticos, S.A., priority 1999, dated 2002).

Regarding `COc1ccc2[nH]c([S+]([O-])Cc3ncc(C)c(OC)c3C)nc2c1` (centres unmarked) [omeprazole], the “pH of maximum stability of solutions” value (omeprazole solutions) is 11. Besides, where the note is “pHs lower than 7.8”, the degradation in solution entry is recorded as “very quickly”.
